Measurements as given in ChEMBL document CHEMBL4651402, “Screening of ~5500 FDA-approved drugs and clinical candidates for anti-SARS-CoV-2 activity” (2021).
Structures can show the parent of a compound that is named as a salt.

System: SARS-CoV-2
Test: microbe, parasite or virus in culture
Settings: Severe acute respiratory syndrome coronavirus 2, Vero C1008, 48 h

Compound	IC50 [µM]	IC50 (read-out: pIC50 (converted)) [µM]
CC(C)(C)c1cc(NC(=O)Nc2ccc(-c3cn4c(n3)sc3cc(OCCN5CCOCC5)ccc34)cc2)no1 [QUIZARTINIB]	> 20	> 20
CCNC(=O)OC1CCN(c2nncc3cc(OC)c(OC)cc23)CC1 [CARBAZERAN]	> 20	> 20
Cc1c(-c2cccnc2)n(CCCCCCCC(=O)O)c2ccccc12	> 20	> 20
CC[C@@]1(O)C(=O)OCc2c1cc1n(c2=O)Cc2cc3ccccc3nc2-1 [CAMPTOTHECIN]	> 20	> 20
CCCCOC(=O)c1ccc(N)cc1 [BUTAMBEN]	> 20	> 20
CC1=CCC2C3Cc4ccc(O)c5c4C2(CCN3C)C1O5 (stereo not given)	> 20	> 20
O=C(NCc1ccncc1)C12CC3CC(C1)CC(c1ccc(Cl)cc1)(C3)C2 [ABC-294640]	> 20	> 20
O=C(O)Cc1ccccc1 [PHENYLACETIC ACID]	> 20	> 20
CC(=O)Oc1cc(OC(C)CCCc2ccccc2)cc2c1[C@@H]1C[C@H](O)CC[C@H]1[C@H](C)N2 (stereo not given in full) [NANTRADOL HYDROCHLORIDE]	> 20	> 20
C/C=C1\[C@H]2C=C(C)C[C@]1(N)c1ccc(=O)[nH]c1C2 [HUPERZINE A]	> 20	> 20
CCCn1c(=O)c2[nH]c(C3CC4CC3[C@H]3O[C@@H]43)nc2n(CCC)c1=O (stereo not given in full)	> 20	> 20
COc1c2c(cc3c1C(O)N(C)CC3)OCO2 (stereo not given)	> 20	> 20
Nc1ncc(-c2ccncc2)nc1Nc1ccc2[nH]ccc2c1 [AKN-028]	> 20	> 20
CCC[C@H](N[C@@H](C)C(=O)N1C2CCCCC2C[C@H]1C(=O)O)C(=O)OCC (stereo not given in full)	> 20	> 20
CCN1C(=O)OC(C)(C)C1=O [ETHADIONE]	> 20	> 20
C=CCOC(Cn1ccnc1)c1ccc(Cl)cc1Cl (stereo not given) [ENILCONAZOLE]	> 20	> 20
COc1cc2c(cc1OC)C1Cc3ccc(OC)c(OC)c3CN1CC2 (stereo not given)	> 20	> 20
CO[C@H]1/C=C\O[C@@]2(C)Oc3c(C)c(O)c4c(O)c(c(/C=N/N5CCN(C6CCCC6)CC5)c(O)c4c3C2=O)NC(=O)/C(C)=C\C=C/[C@H](C)[C@H](O)[C@@H](C)[C@@H](O)[C@@H](C)[C@H](OC(C)=O)[C@@H]1C	> 20	> 20
O=C(O)CCc1nc2ccccc2[nH]1 [PROCODAZOLE]	> 20	> 20
CC(=O)c1c(C)c2cnc(Nc3ccc(N4CCNCC4)cn3)nc2n(C2CCCC2)c1=O [PALBOCICLIB]	> 20	> 20
Cn1c(=O)cc(N2CCC[C@@H](N)C2)n(Cc2ccccc2C#N)c1=O [ALOGLIPTIN]	> 20	> 20
[2H]c1c(C([2H])([2H])[2H])nc(N2CC3CN(C(=O)c4c(F)cccc4-n4nccn4)CC3C2)nc1C([2H])([2H])[2H] (stereo not given)	> 20	> 20
Cc1csc(Cl)c1NC1=NCCN1 [TIAMENIDINE]	> 20	> 20
Cc1ccc(-c2cc(C(F)(F)F)nn2-c2ccc(S(N)(=O)=O)cc2)cc1 [CELECOXIB]	> 20	> 20
O=C(CO)CO [DIHYDROXYACETONE]	> 20	> 20
CCN(CCCc1ccccc1)CCCc1ccccc1 [ALVERINE]	> 20	> 20
CCOC(=O)c1cnc2c(cnn2CC)c1NN=C(C)C [ETAZOLATE]	> 20	> 20
CSc1ccc(C(=O)c2[nH]c(=O)[nH]c2C)cc1 [ENOXIMONE]	> 20	> 20
Cc1cc(O)cc(C)c1Cl [CHLOROXYLENOL]	> 20	> 20
Nc1nc(=S)c2ncn([C@@H]3O[C@H](CO)[C@@H](O)[C@H]3O)c2[nH]1 [THIOGUANOSINE]	> 20	> 20
